The subject of experiment [1] is Wistar rats. Kind of experiment: 1% mustard oil-induced neurogenic inflammation (Evans blue plasma extravasation, foot skin). Type of experiment: in vivo, rat. The following applies: for Decrease % (Evans blue extravasation vs control) / Evans blue extravasation: 20 μg/kg i.p.; for Decrease % (Evans blue extravasation vs control): 1% mustard oil; for Evans blue extravasation: 1% mustard oil on feet, control 169.525; for inhibition of mustard oil-induced neurogenic inflammation (in words): 20 μg/kg, 20 minutes after i.p. administration. The procedure: Thirty minutes after acute bilateral denervation of the lower limbs (transsection of the saphenous and sciatic nerves), 50 mg/kg of Evans blue dye was administered to the tail vein of nembutal-anaesthetized (pentobarbital, 40 mg/kg i.p.) Wistar rats (150-220 g body weight; 5 to 7 animals in each group). […] The mustard oil induces a so-called neurogenic inflammation by the selective stimulation of the peripheral endings of CSPAN's and by releasing the mediators being present therein (chiefly tachykinins and CGRP); this neurogenic inflammation appears as a vasodilatation in the area of arterioles and in the form of a plasma extravasation at the venular side. Since the dye Evans blue is bound to serum albumin in the vascular bed, its precipitation and accumulation in the upper skin surface of foot are proportional to the extent of plasma extravasation. Thus, the quantitative determination of intensity of the inflammation becomes possible. After the painting with mustard oil, the animals were bled, the foot dorsum skins were cut out and their weights were determined. The amount of dye extracted during 72 hours of incubation in formamide was determined at 620 nm on a spectrophotometer (Spectromon 195). The amount (expressed as μg) of the extravasated Evans blue related to one g of wet tissue was calculated by means of the following formula:
Evans blue (μg/g)=E×V×k/m
E is the light absorption of the solution, V means the volume (ml) of the solution, m is the weight […] of the skin cut out from the foot dorsum skin; and k is a constant determined on the basis of a dilution series, which is characteristic of the dye solution.

The test system of another experiment is neurogenic inflammation. The conditions noted are these: sodium salicylate 250 mg/kg i.v.; amidopyridine 200 mg/kg p.o.; phenylbutazone 100 mg/kg i.v.; flufenamic acid 20 mg/kg i.v.; indomethacin 10 mg/kg p.o.; cited from earlier work.
In experiment [2] the test system is Wistar rats. Kind of experiment: 0.5% dextran-induced non-neurogenic inflammation (foot swelling, plethysmometer) after chronic denervation. Type of experiment: in vivo, rat. The procedure:
This test is based on the fact that a non-neurogenic, so-called clearly chemical inflammation can be induced by chemical excitation (e.g. by dextran, carrageenin, formalin) on a chronically denervated body area at least 5 days following the transsection of the nerve. These chemical agents release inflammation-inducing substances (histamine, bradykinin, PAF, prostaglandins and leucotrienes) from immunocytes, chiefly from mast cells.
Dextran solution (0.1 ml, 0.5%) is administered into both feet, underneath the plantar skin of Wistar rats (5 to 7 animals in each group) anaesthetized by nembutal (40 mg/kg i.v.) 5 days after bilateral denervation (transsection of the saphenous and sciatic nerves) of the lower limbs. The pretreated animals received somatostatin (SS), ocreotide or TT-232 (10 μg/kg i.p.) 10 minutes earlier. Before the administration of dextran (0 minute value), then after 10, 20 and 30 minutes, respectively, the swelling of the feet was measured by using a plethysmometer (Ugo Basil). Dextran elicits the so-called clearly chemical inflammation in the feet deprived of nerve supply (innervation) through the transmitters released from the mast cells.
A dose/effect ratio was determined for each substance.

Experiment [3] has as its system Wistar rats. The experiment in a line: Analgetic action: vegetative (pseudoaffective) reflex responses to mustard oil and capsaicin under urethane anaesthesia. The conditions noted are these: 10 μg/kg i.p. Details: Increase in heart rate: unit not given here. Format: in vivo, rat. The source says:
This test is based on the synchronous registration of several components of so-called pseudoaffective reflex responses, which can be induced on animals by pain-producing stimuli [Lim, R. K. S.: J. Comp. Neurol 118, 269-294 (1962)] under urethane anaesthesia.
A significant blood pressure increase of 45 mmHg as an average pressor response, heart rate increase of 85 (as an average) and hyperpnoea (the number of respirations increases by 61 per minute as an average) can be observed in control animals on the effect of strong chemonociceptive stimuli (painting of the lower limbs with 1% mustard oil or dropping a capsaicin solution of 100 μg/ml concentration into the eye) under urethane anaesthesia.
The blood pressure, heart rate and respiration of intact Wistar rats (5 to 7 animals in each group, with a body weight of 250 to 350 g) were continuously registered for 40 minutes through an arterial cannula as well as double ramifying trachea cannula. Ten minutes before beginning the measurement, the pretreated animals received intraperitoneally 10 μg/kg of somatostatin (SS), octreotide or TT-232, respectively. Both lower limbs of the animals were painted with mustard oil in the 3rd minute and capsaicin solution was dropped into their eyes in the 23rd minute. The vegetative responses given on these nociceptive stimuli were evaluated by using a specific computer program.

Where [4] appears, read: Table 2.a, 10 mg/kg, 10 minutes.
Setting [5] is: Table 2.a, 10 mg/kg, 30 minutes.

Where no end group is shown, it is not given here. [ ]: non-standard residue; d: D form. βAsp(indolinyl) = β-Asp(indolinyl) N-terminal residue

As for “D-Phe-Cys-Tyr-D-Trp-Lys-Cys-Trp-NH2 ([dF]CY[dW]KCW-NH2; cysteine pairing not given here) [VZ-924]”, in the experiment with Wistar rats [1], the “Decrease % (Evans blue extravasation vs control)” value (from here on “Decrease %”) turned out to be 55.62%, the Evans blue extravasation is 75.26 µg/g and the “inhibition of mustard oil-induced neurogenic inflammation (in words)” value (“inhibition … (in words)” for short) is given as “significantly inhibited”.
As to `O=C(O)c1ccccc1Nc1cccc(C(F)(F)F)c1` [flufenamic acid], the “significant inhibitory effect on neurogenic inflammation” value (from here on “significant inhibitory effect”) in the experiment with neurogenic inflammation is “none”.
With “β-Asp(indolinyl)-Cys-Tyr-D-Trp-Lys-Cys-Thr-NH2 ({βAsp(indolinyl)}-CY[dW]KCT-NH2; cysteine pairing not given here) [VZ-927]”, in the experiment on Wistar rats [1], the “Decrease %” value stood at 60.44%, the Evans blue extravasation was 67.07 µg/g and the “inhibition … (in words)” value is reported as “significantly inhibited”.
On to `Cc1cnc(NC(=O)C2=C(O)c3ccccc3S(=O)(=O)N2C)s1` [Meloxicam, reference compound], for which the foot swelling % with Wistar rats [2] (Table 2.a, 0.2 mg/kg, 10 minutes) is on record as 27.60 ± 3.56%; with Wistar rats [2] (Table 2.a, 0.2 mg/kg, 20 minutes), 39.99 ± 3.65%; in the experiment on Wistar rats [2] (Table 2.a, 0.2 mg/kg, 30 minutes), 45.81 ± 2.9%; with Wistar rats [2] (Table 2.a, 0.5 mg/kg, 10 minutes) it was 27.24 ± 3.56%; in the experiment with Wistar rats [2] (Table 2.a, 0.5 mg/kg, 20 minutes), 38.86 ± 2.86%; in the experiment on Wistar rats [2] (Table 2.a, 0.5 mg/kg, 30 minutes), 44.92 ± 2.99%. For the same compound, the foot swelling % in the experiment on Wistar rats [2] (Table 2.a, 1 mg/kg, 10 minutes) turned out to be 24.34 ± 2.57%; with Wistar rats [2] (Table 2.a, 1 mg/kg, 20 minutes), 36.46 ± 3.44%; in the experiment on Wistar rats [2] (Table 2.a, 1 mg/kg, 30 minutes), 46.63 ± 3.2%; in the experiment on Wistar rats [2] (setting [4]), 20.39 ± 2.26%; with Wistar rats [2] (Table 2.a, 10 mg/kg, 20 minutes), 33.36 ± 1.85%; in the experiment on Wistar rats [2] (setting [5]), 39.34 ± 3.75%.
For the compound `O=C([O-])c1ccccc1O.[Na+]` [sodium salicylate], the “significant inhibitory effect” value with neurogenic inflammation is given as “none”.
For “D-Phe-Cys-Tyr-Gly-Lys-Cys-Thr-NH2 ([dF]CYGKCT-NH2; cysteine pairing not given here) [VZ-1021]”, in the experiment with Wistar rats [1], the “Decrease %” value worked out at 54.72%, the Evans blue extravasation came to 76.72 µg/g and the “inhibition … (in words)” value was “significantly inhibited”.
As to `O=C(NN=Cc1ccc(O)c(O)c1)C(=O)Nc1cccc([N+](=O)[O-])c1` [HDL 2722, 3′-nitrophenylamino-2-oxoacetyl-3″,4″-dihydroxyphenyl-hydra-zone], the “inhibition of 1% mustard oil-induced neurogenic inflammation (plasma extravasation)” value in the experiment with Wistar rats [1] (50 μg) is 62%.
Turning to “D-Phe-Cys-Tyr-D-Trp-Gly-Cys-Thr-NH2 ([dF]CY[dW]GCT-NH2; cysteine pairing not given here) [VZ-934]”, in the experiment with Wistar rats [1], the “Decrease %” value is recorded as 44.7%, the Evans blue extravasation was 93.7 µg/g and the “inhibition … (in words)” value is “significantly inhibited”.
With `O=C(O)Cc1ccccc1Nc1c(Cl)cccc1Cl` [Diclofenac, reference compound], the foot swelling % with Wistar rats [2] (Table 2.a, 5 mg/kg, 20 minutes) amounted to 48.73 ± 4.84%; with Wistar rats [2] (Table 2.a, 5 mg/kg, 30 minutes) it was 53.07 ± 3.95%; with Wistar rats [2] (setting [4]), 24.35 ± 3.31%; in the experiment on Wistar rats [2] (setting [5]), 42.61 ± 3.55%; in the experiment on Wistar rats [2] (Table 2.a, 20 mg/kg, 10 minutes), 21.87 ± 2.84%; in the experiment with Wistar rats [2] (Table 2.a, 30 mg/kg, 10 minutes), 26.02 ± 1.79%. The compound also showed a foot swelling % with Wistar rats [2] (Table 2.a, 30 mg/kg, 30 minutes) of 40.20 ± 1.73%.
With `Cc1c(N(C)C)c(=O)n(-c2ccccc2)n1C` [amidopyridine], in the experiment on neurogenic inflammation, the “significant inhibitory effect” value is “none”.
As to `C[C@@H](O)[C@@H]1NC(=O)[C@H](CCCCN)NC(=O)[C@@H](Cc2c[nH]c3ccccc23)NC(=O)[C@H](Cc2ccccc2)NC(=O)[C@@H](NC(=O)[C@H](N)Cc2ccccc2)CSSC[C@@H](C(=O)N[C@H](CO)[C@@H](C)O)NC1=O` [Octreotide, reference compound], the “Decrease %” value in the experiment with Wistar rats [1] was 3.952%. In the experiment with Wistar rats [1], the Evans blue extravasation was 162.826 µg/g. For the same compound, in the experiment on Wistar rats [1], the “inhibition … (in words)” value was “inactive”. Moreover, the “prevention of dextran-induced non-neurogenic inflammation (in words)” value with Wistar rats [2] (10 μg/kg, even 40 minutes following the pretreatment) was “completely inactive”. For the same compound, the foot swelling % in the experiment on Wistar rats [2] (Table 2, 10 μg/kg i.p. 10 min before dextran, 10 minutes, control 32.97) was 31.36%; with Wistar rats [2] (Table 2, 10 μg/kg i.p. 10 min before dextran, 20 minutes, control 49.695), 47.7%; with Wistar rats [2] (Table 2, 10 μg/kg i.p. 10 min before dextran, 30 minutes, control 56.68) it was 54.8%. Further, the “protection against pseudoaffective reflex triad elicited by mustard oil and capsaicin (in words)” value in the experiment on Wistar rats [3] (10 minutes before mustard oil) is “completely inactive”. Also, the “Increase in respiration rate” value in the experiment on Wistar rats [3] (after dropping capsaicin solution into the eye, control 47.5) is 42 per minute; with Wistar rats [3] (after painting the feet by mustard oil, control 60.75), 45 per minute. Moreover, the “Increase in mean arterial pressure” value amounted to 47.13 mmHg in the experiment on Wistar rats [3] (after dropping capsaicin solution into the eye, control 55) and 43.2 mmHg in the experiment with Wistar rats [3] (after painting the feet by mustard oil, control 45.4). The “Increase in heart rate” value is 127 in the experiment on Wistar rats [3] (after dropping capsaicin solution into the eye, control 143) and 81.2 with Wistar rats [3] (after painting the feet by mustard oil, control 84.8).
As for `COc1ccc2c(c1)c(CC(=O)O)c(C)n2C(=O)c1ccc(Cl)cc1` [indomethacin], the “significant inhibitory effect” value with neurogenic inflammation was “none”.

Source of the values: patent US6689813B2 (Biostatin Gyogyszerkutato-Fejleszto kft., priority 1998, dated 2004).
